{"source": "paper PMC4189421", "about": "“Induction of Oligodendrocyte Differentiation and In Vitro Myelination by Inhibition of Rho-Associated Kinase” (ASN NEURO, 2014)", "key": {"[1]": {"system": "mouse neurosphere-derived oligodendrocyte precursor cells (Nph-OPCs)", "experiment": "Morphology-based OPC differentiation assay (branches, outgrowth; high-content imaging)", "format": "cell-based", "settings": "mNph-OPC, 72 hr treatment, dose-response", "procedure": "Neurospheres (Nph) were prepared from embryos at 14.5 days of gestation obtained from timed pregnant females of C57/Bl6 mice, as previously described ([Kornblum, Yanni, Easterday, & Seroogy, 2000]; [Pedraza, Monk, Lei, Hao, & Macklin, 2008]). In brief, after separation of meninges and cerebellum, cerebrum tissue was mechanically triturated with a 1-ml micropipette until total tissue dissociation was achieved, filtered through a 70 -µm cell strainer (Fisher Scientific, Pittsburgh, PA), and plated in 25-cm^2 plastic culture flasks (2 brains/flask). Nph proliferation media (NPM) consisted of Dulbecco’s Modified Eagle Medium (DMEM)/F12, B27 neuronal supplement (Gibco, Baltimore, MD) and 10 ng/ml […] (EGF; Sigma, St. Louis, MO). After 48 to 72 hr, floating Nphs were passaged at a 1 : 1 ratio into 75-cm^2 culture flasks. After a further 48 to 72 hr, they were passaged into 150-cm^2 flasks. Subsequent passages were performed every 3 to 4 days at a ratio of 1 : 2 or 1 : 3 in the same media, and Nph were used to generate OPCs for no more than 12 passages.\nOPCs were generated by chemical disaggregation of Nph with a mouse neural progenitor dissociation kit following the manufacturer instructions (NeuroCult, StemCell Technologies, AB, Canada). The single-cell suspension was then filtered through a 40 -µm cell strainer and plated on poly-D-lysine (PDL)-coated plates. […]\nTo determine the effects of ROCK inhibition on OPCs, we developed a high-content image morphological analysis of OPC differentiation using mouse embryonic neural progenitor-derived OPCs (Nph-OPCs). […] Four images per well were analyzed using a neurite outgrowth module (Molecular Devices, Sunnyvale, CA). We quantified the number of branches and total outgrowth per cell (Figure 1). […] Additionally, nuclear staining by Hoechst allowed the accurate association of branches and processes to their corresponding cell bodies and permitted quantification of total cell numbers in each well."}, "[2]": {"system": "mouse Nph-OPCs", "experiment": "Cell proliferation as number of Hoechst-labeled nuclei", "format": "cell-based", "settings": "1 µM; n = 3 in triplicate wells; DMSO: 522 ± 126", "from_the_text": "To determine the effects of ROCK inhibition on OPCs, we developed a high-content image morphological analysis of OPC differentiation using mouse embryonic neural progenitor-derived OPCs (Nph-OPCs). Neural progenitors grow as nonadherent spheroids known as neurospheres (Nph; [Chojnacki & Weiss, 2008]; [Tropepe et al., 1999]), which are considered to be a mixed population of neural stem cells and progenitors of the CNS ([Rao, 1999]; [Zhou & Chiang, 1998]). These cells have been previously used in multiple published studies for the generation of high-yield, high-purity cultures of OPCs from rodents ([Calaora et al., 2001]; [[…] al., 1997]; [Pedraza et al., 2008]). After 24 hr of plating on PDL-coated tissue culture plastic, Nph-OPCs were treated as indicated with differentiation stimuli and further incubated for 72 hr. […] Four images per well were analyzed using a neurite outgrowth module (Molecular Devices, Sunnyvale, CA). We quantified the number of branches and total outgrowth per cell (Figure 1). […] Additionally, nuclear staining by Hoechst allowed the accurate association of branches and processes to their corresponding cell bodies and permitted quantification of total cell numbers in each well. […]"}, "[3]": {"system": "rat mixed glial OPCs", "experiment": "Myelin protein expression in rat mixed glia-derived OPCs (qPCR, MBP ELISA)", "format": "cell-based", "procedure": "Rat postnatal OPCs were obtained as described elsewhere according to the original procedure of [McCarthy and […] (1980)]. In brief, postnatal Day 1 rat pups were sacrificed, and cerebral cortices dissected and mechanically dissociated in medium composed of DMEM, 10% heat inactivated fetal bovine serum, and 5 μg/ml penicillin/streptomycin. Dissociated cells were plated and maintained in 75-cm^2 culture flasks for 10 days, replenishing with fresh media at Days 3 and 7. At Day 10, the flasks were shaken on a heated (37°C) shaker for 1 hr at 110 rpm to separate loosely attached microglial cells. The medium was replenished, and the cells incubated for the remainder of the day. To dislodge OPCs from the astrocyte monolayer, flasks were shaken overnight (210 rpm, 37°C). […] Cells were then plated on PDL-coated tissue culture plastic and treated with test compounds. […] The results are presented as specific mRNA expression relative to either β-actin or β-tubulin, used as internal controls as indicated. OPCs isolated from rat mixed glial cultures are known to mature readily in the absence of mitogens achieving a premyelinating OL stage as determined by the expression of the cell surface sulfatide O4, and the myelin proteins MBP and PLP among others ([Armstrong, 1998]; [Barbarese & Pfeiffer, 1981]; [[…], 1999]; [Jung-[…], Schumacher, Robel, & Baulieu, 1996]; [Konola, Tyler, Yamamura, & Lees, 1991]). They also display marked morphological changes, progressing from bipolar to multibranched cells generating membranous structures, and probably represent a later developmental stage than Nph-OPC. In rat mixed glial OPCs, we measured myelin protein expression at the RNA level by qPCR and MBP production by ELISA (MBL International, Woburn, MA)."}, "[4]": {"system": "MYPT1 phosphorylation in mNph-OPC", "experiment": "MYPT1 phosphorylation (sandwich ELISA, western blot) as ROCK target engagement", "settings": "100 µM, 4-hr mNph-OPC treatment", "experimental": "Tris-glycine acrylamide-bysacrylamide gradient gel electrophoresis was performed as follows: After washing the cells with ice-cold PBS, protein lysates were made by adding 50 µl of PhosphoSafe extraction reagent (EMD Millipore) supplemented with antiprotease cocktail (cOmplete; Roche, Branford, CT) onto each 100-mm^2 cell culture plate. After detaching the cells with the help of a cell scraper and disrupting cell membranes by sonication, the protein extracts were centrifuged (10,000 g, 10 min, 4℃) and the supernatants separated. Protein content was measured by the BCA protein determination method (Biorad, Hercules, CA), and 30 µg of total protein was mixed with SDS sample buffer (Laemmli) supplemented with 1% β-mercaptoethanol. After heating the samples to 70℃ for 10 min, they were loaded onto 4% to 20% acryl-bysacrylamide gradient gels, and electrophoresis was carried out at 120 volts with constant amperage.\nResolved proteins were then transferred onto nitrocellulose membranes using the iBlot methodology and device (Life technologies). […] Secondary detection was performed using Li-Cor IRDye secondary anti-mouse and anti-rabbit antibodies, and near-infrared signal was detected by Li-Cor’s Odyssey imaging system.\nWe assessed MYPT1 phosphorylation in Nph-OPCs treated for 4 hr with ROCK inhibitors in a dose-response experiment and using a sandwich ELISA as a measuring method (MBL International)."}, "[5]": {"target": "T1, ROCKI (Homo sapiens, UniProt Q13464)", "T1 construct": "purchased EMD Millipore", "T1 sequence (Q13464 whole entry, species assumed)": "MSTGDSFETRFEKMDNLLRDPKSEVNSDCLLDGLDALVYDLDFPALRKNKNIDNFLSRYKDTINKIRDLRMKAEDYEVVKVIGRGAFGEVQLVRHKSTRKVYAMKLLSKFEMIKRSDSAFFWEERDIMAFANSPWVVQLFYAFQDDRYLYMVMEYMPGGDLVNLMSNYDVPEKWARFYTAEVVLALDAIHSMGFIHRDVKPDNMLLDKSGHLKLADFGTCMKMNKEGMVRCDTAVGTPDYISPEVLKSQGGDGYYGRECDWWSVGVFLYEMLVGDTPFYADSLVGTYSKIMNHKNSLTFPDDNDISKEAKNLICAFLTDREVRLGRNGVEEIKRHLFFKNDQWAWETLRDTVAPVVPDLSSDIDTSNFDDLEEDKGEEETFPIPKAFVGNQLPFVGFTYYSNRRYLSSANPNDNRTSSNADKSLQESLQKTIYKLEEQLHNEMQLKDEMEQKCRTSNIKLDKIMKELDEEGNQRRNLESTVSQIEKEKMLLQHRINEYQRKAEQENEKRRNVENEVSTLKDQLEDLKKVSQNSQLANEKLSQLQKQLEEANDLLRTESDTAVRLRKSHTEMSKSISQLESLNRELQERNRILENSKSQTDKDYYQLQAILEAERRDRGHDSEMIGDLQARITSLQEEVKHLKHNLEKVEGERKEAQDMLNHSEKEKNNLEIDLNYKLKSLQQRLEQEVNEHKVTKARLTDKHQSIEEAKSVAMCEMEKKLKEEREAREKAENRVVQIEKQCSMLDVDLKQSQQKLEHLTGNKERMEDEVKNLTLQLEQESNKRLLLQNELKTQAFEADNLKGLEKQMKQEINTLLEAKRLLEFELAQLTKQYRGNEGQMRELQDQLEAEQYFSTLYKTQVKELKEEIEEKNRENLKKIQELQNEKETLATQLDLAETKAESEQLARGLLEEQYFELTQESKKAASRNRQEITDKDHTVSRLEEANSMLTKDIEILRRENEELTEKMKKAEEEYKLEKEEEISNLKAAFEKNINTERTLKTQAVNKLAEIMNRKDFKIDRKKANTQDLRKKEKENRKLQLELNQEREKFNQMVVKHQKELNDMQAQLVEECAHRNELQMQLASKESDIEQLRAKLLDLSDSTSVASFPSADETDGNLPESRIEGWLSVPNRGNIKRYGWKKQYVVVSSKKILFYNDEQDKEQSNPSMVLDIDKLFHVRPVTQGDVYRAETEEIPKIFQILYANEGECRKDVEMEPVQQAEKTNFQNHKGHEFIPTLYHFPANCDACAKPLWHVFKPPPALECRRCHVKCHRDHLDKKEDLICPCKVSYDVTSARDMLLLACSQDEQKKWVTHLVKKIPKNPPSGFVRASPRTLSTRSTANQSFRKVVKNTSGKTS", "settings": "read-out: Activity, IC50 ROCKI, Table 1, ref Goodman et al., 2007, Nichols et al., 2009, heading: Activity; cited from earlier work"}, "[6]": {"target": "T2, ROCKII (Homo sapiens, UniProt O75116)", "T2 construct": "purchased EMD Millipore", "T2 sequence (O75116 whole entry, species assumed)": "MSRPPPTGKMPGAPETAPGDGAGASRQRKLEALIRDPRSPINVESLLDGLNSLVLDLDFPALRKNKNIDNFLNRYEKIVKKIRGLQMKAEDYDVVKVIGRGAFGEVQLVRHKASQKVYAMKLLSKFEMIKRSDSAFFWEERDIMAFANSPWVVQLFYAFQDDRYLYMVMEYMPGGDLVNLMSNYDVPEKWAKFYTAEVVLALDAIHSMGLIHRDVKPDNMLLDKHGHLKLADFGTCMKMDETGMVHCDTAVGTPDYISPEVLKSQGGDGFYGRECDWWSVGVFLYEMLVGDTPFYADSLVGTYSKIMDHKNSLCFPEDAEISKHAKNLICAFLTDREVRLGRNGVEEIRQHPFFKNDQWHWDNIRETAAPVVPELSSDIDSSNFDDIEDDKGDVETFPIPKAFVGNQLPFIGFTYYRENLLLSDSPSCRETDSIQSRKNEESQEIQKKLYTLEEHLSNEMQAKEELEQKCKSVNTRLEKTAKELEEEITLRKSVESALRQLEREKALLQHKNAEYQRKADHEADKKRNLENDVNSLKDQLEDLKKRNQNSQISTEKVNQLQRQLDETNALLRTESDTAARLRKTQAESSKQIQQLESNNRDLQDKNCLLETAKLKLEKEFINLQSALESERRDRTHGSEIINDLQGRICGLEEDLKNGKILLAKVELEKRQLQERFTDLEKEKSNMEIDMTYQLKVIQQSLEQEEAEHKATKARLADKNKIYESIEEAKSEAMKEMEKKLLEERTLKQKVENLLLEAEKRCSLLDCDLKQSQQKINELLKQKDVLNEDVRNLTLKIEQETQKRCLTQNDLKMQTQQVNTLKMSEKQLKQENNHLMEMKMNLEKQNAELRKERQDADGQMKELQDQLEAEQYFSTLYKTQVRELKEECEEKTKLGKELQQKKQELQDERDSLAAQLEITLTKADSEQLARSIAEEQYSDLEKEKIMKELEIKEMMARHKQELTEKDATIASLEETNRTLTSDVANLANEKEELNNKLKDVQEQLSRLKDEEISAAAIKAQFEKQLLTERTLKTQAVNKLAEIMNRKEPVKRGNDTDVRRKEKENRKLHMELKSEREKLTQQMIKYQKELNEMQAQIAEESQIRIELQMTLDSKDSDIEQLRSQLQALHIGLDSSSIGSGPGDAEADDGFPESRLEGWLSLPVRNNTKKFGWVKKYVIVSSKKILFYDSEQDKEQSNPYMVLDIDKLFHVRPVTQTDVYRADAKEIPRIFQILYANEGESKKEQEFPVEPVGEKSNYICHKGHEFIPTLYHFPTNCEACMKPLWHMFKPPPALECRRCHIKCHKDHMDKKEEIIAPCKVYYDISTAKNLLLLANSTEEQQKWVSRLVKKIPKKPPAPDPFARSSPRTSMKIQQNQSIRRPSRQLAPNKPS", "settings": "read-out: Activity, IC50 ROCKII, Table 1, ref Goodman et al., 2007, Nichols et al., 2009, heading: Activity; cited from earlier work"}}}
{"smiles": "O=S(=O)(c1cccc2cnccc12)N1CCCNCC1", "note": "[Fasudil]", "values": [{"measurement": "OPC differentiation effect (processes and branches)", "setting": "[1]", "result": "minor differentiation effect"}, {"measurement": "Number of Hoechst-labeled nuclei", "setting": "[2]", "result": "598 ± 21", "unit": "cells/well"}, {"measurement": "Expression of MBP, PLP, and MOG mRNAs (qPCR)", "setting": "[3]; 3 days maturation +4 days treatment, concentrations as low as 0.1 µM", "result": "significant increase"}, {"measurement": "MBP at the protein level (ELISA)", "setting": "[3]; treatments at 24 hr and 72 hr after plating", "result": "increased expression"}, {"measurement": "Decrease of MYPT1 phosphorylation (ELISA)", "setting": "[4]", "result": 60, "unit": "%"}]}
{"smiles": "CC1=C(C(=O)Nc2cc3cn[nH]c3cc2F)C(c2ccc(C(F)(F)F)cc2)CC(=O)N1", "note": "(centres unmarked) [GSK 429286, 4-[4-(trifluoromethyl)phenyl]-N-(6-fluoro-1H-indazol-5-yl)-2-methyl-6-oxo-1,4,5,6-tetrahydro-3-pyridinecarboxamide]", "values": [{"measurement": "IC50", "setting": "[1]; Mus musculus, Oligodendrocyte precursor cell, read-out: IC50, generation of branches in OPC differentiation assay", "result": 2300, "unit": "nM"}, {"measurement": "IC50", "setting": "[5]", "result": 14, "unit": "nM"}, {"measurement": "IC50", "setting": "[6]", "result": 48, "unit": "nM"}]}
